Measured values taken from US5326766A, “4-(2-(4-(2-pyridinyloxy)phenyl)ethoxy)quinazoline and analogues thereof” (priority 1992, dated 1994).

Tests used:
[1] = tested on: Pyricularia oryzae (rice blast); assay: whole plant or invertebrate; type: in vivo; details: Pyricularia oryzae, foliar, read-out: PYRIOR disease control, host rice; foliar spray; 400 ppm (+++: 100 ppm)
[2] = tested on: Erysiphe graminis tritici (powdery mildew); assay: Foliar spray fungicide test, Erysiphe graminis tritici (powdery mildew) on wheat; details: Blumeria graminis, in Triticum aestivum, foliar, read-out: ERYSGT disease control, host wheat, 400 ppm (+++: 100 ppm)
[3] = tested on: Plasmopara viticola (downy mildew); assay: Foliar spray fungicide test, Plasmopara viticola (downy mildew) on grape; details: for pest or weed control at 400 µg/mL: Plasmopara viticola, foliar, read-out: PLASVI disease control; for PLASVI disease control: host grape, foliar spray, 400 ppm (+++: 100 ppm)
Description: (§3) The test compounds were formulated for application by dissolving 50 mg of the compound into 1.25 ml of solvent. The solvent was prepared by mixing 50 ml of "Tween 20" (polyoxyethylene (20) sorbitan monolaurate emulsifier) with 475 ml of acetone and 475 ml of ethanol. The solvent/compound solution was diluted to 125 ml with deionized water. The resulting formulation contains 400 ppm test chemical. Lower concentrations were obtained by serial dilution with the solvent-surfactant mixture.
(§4) The formulated test compounds were applied by foliar spray.
(§5) The formulated technical compounds were sprayed on all foliar surfaces of the host plants to past run-off. Single pots of each host plant were placed on raised, revolving pedestals in a fume hood. Test solutions were sprayed on all foliar surfaces. All treatments were allowed to dry and the plants were inoculated with the appropriate pathogens within 24 hours.
(§6) The effectiveness of test compounds in controlling disease was rated using the following scale.

[4] = tested on: Leptosphaeria nodorum (glume blotch); assay: Foliar spray fungicide test, Leptosphaeria nodorum (glume blotch) on wheat; details: Parastagonospora nodorum, in Triticum aestivum, foliar, read-out: LETPNO disease control, host wheat, 400 ppm (+++: 100 ppm)
Description: as §3, §4, §5, §6

[5] = tested on: Puccinia recondita tritici (leaf rust); assay: Foliar spray fungicide test, Puccinia recondita tritici (leaf rust) on wheat; details: Puccinia recondita, in Triticum aestivum, foliar, read-out: PUCCRT disease control, host wheat, 400 ppm (+++: 100 ppm)
Description: as §3
The formulated test compounds were applied by foliar spray. The following plant pathogens and their corresponding plants were employed.
Puccinia recondita PUCCRT wheat
as §5, §6

[6] = tested on: cotton aphid (Aphis gossypii); assay: whole plant or invertebrate; details: 72 h, read-out: CA activity (percent based on aphids present in plants sprayed with solvent alone), 400 ppm, squash plants, three days after treatment
[7] = tested on: beet armyworm (Spodoptera exiqua); assay: Activity against beet armyworm; type: in vivo; details: Spodoptera, 144 h, 400 ppm; 6 days; read-out: BAW activity (rated on live and dead larvae and size of live larvae)
Description: (§1) The compounds identified in Table I were tested for miticidal and insecticidal activity against eight species. The following abbreviations are used in the Table III:
BAW refers to beet armyworm
(§2) In conducting evaluations of insecticidal activity, each test compound was formulated as a 400 ppm solution, and this solution was then diluted with water to give lesser concentrations. The 400 ppm solution was prepared by combining 19.2 mL of 0.05% solution of Tween 20 (polyoxyethylene (20) sorbitan monolaurate) in water with a solution of 8 mg of the compound in 0.8 mL of acetone/EtOH (9/1).
Activity against beet armyworm (Spodoptera exiqua) was evaluated as follows. The test is run using concentrations of 400 ppm and 50 ppm. A general purpose lepidoptera artificial diet was diluted to half strength with a 5% non nutritive agar. 8 mL of this diet material was dispensed into one ounce diet cups. One hour prior to treatment, 35 to 40 eggs were dispensed onto the diet surface. The cups were then sprayed with formulated material through a flat-fan nozzle. Treated cups were air dried prior to sealing with plastic caps. The cups were held for 6 days at room temperature. Activity was then rated based on the total number of live and dead larvae, and on the size of live larvae.

[8] = tested on: two spotted spider mite (Tetranychus urticae); assay: whole plant or invertebrate; details: 72 h, read-out: TSSM activity (percent based on mites present in plants sprayed with solvent alone), 400 ppm, squash plants, three days after treatment
[9] = tested on: tobacco budworm (Heliothis virescens); assay: Activity against tobacco budworm; type: in vivo; details: Heliothis virescens, 144 h, 400 ppm; 6 days; read-out: TBW activity (rated on live and dead larvae and size of live larvae)
Description: as §1
TBW refers to tobacco budworm
as §2
Activity against tobacco budworm (Heliothis virescens) was evaluated as follows. A general purpose lepidoptera artificial diet was diluted to half strength with a 5% non nutritive agar. 8 mL of this diet material was dispensed into each one ounce diet cup. One hour prior to treatment 18 to 20 eggs were dispensed onto the diet surface. The cups were then sprayed with formulated material through a flat-fan nozzle. The test was run using concentrations of 400 ppm and 50 ppm. Treated cups were air dried prior to sealing with plastic caps. The cups were held for 6 days at room temperature. Activity was then rated based on the total number of live and dead larvae, and on the size of live larvae.

[10] = tested on: aster leafhopper (Macrosteles fascifrons); assay: whole plant or invertebrate; type: in vivo; details: Macrosteles fascifrons, 24 h, 400 ppm, read-out: ALH percent mortality
Description: as §1
ALH refers to aster leafhopper
as §2
Activity against aster leafhopper (Macrosteles fascifrons) was tested as follows. The test was run using concentrations of 400 ppm and 50 ppm. One ounce plastic cups containing a cotton wick was sprayed with 0.4 mL of formulated material using a flat-fan nozzle. The excess moisture was allowed to evaporate. Then five to ten carbon dioxide anesthetized adult leafhoppers were added to each cup. The cups were capped and held at room temperature for 24 hours. Percent mortality was then determined.

Compound | pest or weed control at 400 µg/mL [1] [%] | pest or weed control at 400 µg/mL [2] [%] | pest or weed control at 400 µg/mL [3] [%] | pest or weed control at 400 µg/mL [4] [%] | pest or weed control at 400 µg/mL [5] [%] | PLASVI disease control [3] | mortality at 400 ppm [6] [%] | pest or weed control at 400 ppm [7] [%] | mortality at 400 ppm [8] [%] | pest or weed control at 400 ppm [9] [%] | mortality at 400 ppm [10] [%]
FC(F)(F)c1cnc(Oc2ccc(CCNc3ncnc4cccnc34)cc2)c(Cl)c1 [Compound 2] | 90 to 100 | 90 to 100 | 90 to 100 | 20 to 89 | 90 to 100 |  |  |  |  |  | 
N#Cc1cccnc1Oc1ccc(CCOc2ncnc3c(F)cccc23)cc1 [Compound 3] | 20 to 89 | 20 to 89 | 90 to 100 | 20 to 89 | 20 to 89 |  |  |  |  |  | 
N#Cc1cccnc1Oc1ccc(CCOc2ncnc3cccc(F)c23)cc1 [Compound 4] | 0 to 19 | 20 to 89 | 20 to 89 | 0 to 19 | 0 to 19 |  |  |  |  |  | 
O=[N+]([O-])c1cccnc1Oc1ccc(CCOc2ncnc3c(F)cccc23)cc1 [Compound 8] | 20 to 89 | 90 to 100 | 90 to 100 | 20 to 89 | 20 to 89 |  |  |  |  |  | 
O=[N+]([O-])c1cccnc1Oc1ccc(CCOc2ncnc3cccc(F)c23)cc1 [Compound 9] | 0 to 19 | 0 to 19 | 90 to 100 | 0 to 19 | 0 to 19 |  |  |  |  |  | 
Fc1cccc2c(OCCc3ccc(Oc4ncccc4C(F)(F)F)cc3)ncnc12 [Compound 10] | 90 to 100 | 90 to 100 | 90 to 100 | 90 to 100 | 90 to 100 |  |  |  |  |  | 
Fc1cccc2c(NCCc3ccc(Oc4ncccc4C(F)(F)F)cc3)ncnc12 [Compound 11] | 90 to 100 | 90 to 100 |  | 90 to 100 | 90 to 100 | + ++ |  |  |  |  | 
FC(F)(F)c1ccnc(Oc2ccc(CCOc3ncnc4ccccc34)cc2)c1 [Compound 13] | 20 to 89 | 90 to 100 | 90 to 100 | 90 to 100 | 90 to 100 |  | 100 | 100 | 100 | 100 | 100
Fc1cccc2c(NCCc3ccc(Oc4cc(C(F)(F)F)ccn4)cc3)ncnc12 [Compound 14] | 90 to 100 | 90 to 100 | 90 to 100 | 20 to 89 | 90 to 100 |  |  |  |  |  | 
Fc1cccc2c(OCCc3ccc(Oc4ccc(Cl)cn4)cc3)ncnc12 [Compound 17] | 90 to 100 | 90 to 100 | 90 to 100 | 20 to 89 | 90 to 100 |  |  |  |  |  | 
O=[N+]([O-])c1ccc(Oc2ccc(CCNc3ncnc4c(F)cccc34)cc2)nc1 [Compound 24] | 20 to 89 | 0 to 19 | 90 to 100 | 20 to 89 | 20 to 89 |  |  |  |  |  | 
FC(F)(F)c1ccc(Oc2ccc(CCOc3ncnc4ncccc34)cc2)nc1 [Compound 30] | 90 to 100 | 90 to 100 | 90 to 100 | 0 to 19 | 90 to 100 |  |  |  |  |  | 
FC(F)(F)c1ccc(Oc2ccc(CCNc3ncnc4ncccc34)cc2)nc1 [Compound 31] | 20 to 89 | 20 to 89 | 90 to 100 | 20 to 89 | 90 to 100 |  |  |  |  |  | 
FC(F)(F)c1ccc(Oc2ccc(CCNc3ncnc4cccnc34)cc2)nc1 [Compound 32] | 90 to 100 | 90 to 100 | 90 to 100 | 90 to 100 | 90 to 100 |  |  |  |  |  | 
Fc1cccc2c(OCCc3ccc(Oc4cccc(OCC(F)(F)F)n4)cc3)ncnc12 [Compound 33] | 20 to 89 | 90 to 100 | 90 to 100 | 0 to 19 | 90 to 100 |  |  |  |  |  | 
Fc1cccc2c(OCCc3ccc(Oc4cccc(C(F)(F)F)n4)cc3)ncnc12 [Compound 36] | 90 to 100 | 90 to 100 | 90 to 100 | 20 to 89 | 90 to 100 |  |  |  |  |  | 
Fc1cccc2c(NCCc3ccc(Oc4cccc(C(F)(F)F)n4)cc3)ncnc12 [Compound 37] | 20 to 89 | 90 to 100 | 90 to 100 | 90 to 100 | 90 to 100 |  |  |  |  |  | 
Fc1cccc2c(NCCc3ccc(Oc4cccc(C(F)(F)F)n4)cc3)ccnc12 [Compound 40, 8-Fluoro-4-(2-(4-(6-(trifluoromethyl)-2-pyridinyloxy)phenyl)ethylamino)quinoline] | 20 to 89 | 90 to 100 | 90 to 100 | 20 to 89 | 90 to 100 |  |  |  |  |  | 
Fc1cccc2c(OCCc3ccc(Oc4ncc(Cl)cc4Cl)cc3)ncnc12 [Compound 41] | 90 to 100 | 90 to 100 |  | 20 to 89 | 90 to 100 | ++ + | 100 | 100 | 100 | 100 | 100
Brc1cnc(Oc2ccc(CCOc3ncnc4ccccc34)cc2)nc1 [Compound 46] | 0 to 19 | 20 to 89 | 0 to 19 | 20 to 89 | 20 to 89 |  |  |  |  |  | 
Clc1cnc(Oc2ccc(CCOc3ncnc4ccccc34)cc2)nc1 [Compound 47] | 20 to 89 | 90 to 100 | 20 to 89 | 0 to 19 |  |  |  |  |  |  | 
Fc1cccc2c(OCCc3ccc(Oc4ncc(Cl)cn4)cc3)ccnc12 [Compound 48] | 0 to 19 | 20 to 89 | 20 to 89 | 0 to 19 |  |  |  |  |  |  | 
Clc1ccc(Oc2ccc(CCOc3ncnc4ccccc34)cc2)nn1 [Compound 49] | 0 to 19 | 20 to 89 | 90 to 100 | 0 to 19 | 20 to 89 |  |  |  |  |  | 
